From article PMC10285260, “Processive kinetics in the three-step lanosterol 14α-demethylation reaction catalyzed by human cytochrome P450 51A1” (The Journal of Biological Chemistry, 2023)
“And” between values parts separate entries of the source, which are not always exact repeats. Identical values can stand only once. Like-named read-outs stand apart in the source and are kept apart here.

Assays:
[1] = molecular target: T1, human P450 51A1 (Homo sapiens, UniProt Q16850); test: Spectral (difference spectroscopy) Kd estimates of P450 51A1-sterol complexes; format: binding; set-up: made in house; host or cells: Escherichia coli
T1 sequence (Q16850 1-509): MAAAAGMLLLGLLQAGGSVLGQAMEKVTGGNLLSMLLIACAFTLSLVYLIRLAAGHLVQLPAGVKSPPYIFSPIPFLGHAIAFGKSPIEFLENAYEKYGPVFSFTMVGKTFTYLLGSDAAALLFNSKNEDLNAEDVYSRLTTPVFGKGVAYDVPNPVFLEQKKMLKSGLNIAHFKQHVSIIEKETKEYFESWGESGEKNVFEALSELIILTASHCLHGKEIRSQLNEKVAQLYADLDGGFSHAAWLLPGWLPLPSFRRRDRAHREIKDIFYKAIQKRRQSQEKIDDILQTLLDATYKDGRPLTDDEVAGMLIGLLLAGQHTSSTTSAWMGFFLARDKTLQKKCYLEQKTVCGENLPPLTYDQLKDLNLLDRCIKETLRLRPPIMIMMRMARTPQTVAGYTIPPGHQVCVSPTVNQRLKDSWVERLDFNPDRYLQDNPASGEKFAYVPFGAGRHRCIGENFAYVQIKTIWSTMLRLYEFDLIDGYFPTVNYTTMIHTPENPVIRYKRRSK
Description: Kd values were estimated by difference spectroscopy. P450 51A1 (1.0 μM) was in each of two glass cuvettes (in 100 mM potassium phosphate buffer, pH 7.4) and a baseline was recorded (OLIS-Amino DW2a). Aliquots of a solution of each sterol–HPCD complex were added to the sample cuvette and an equivalent amount of HPCD was added to the reference cuvette, and spectra were recorded. The time between the collection of individual spectra was ∼3 min. The maximum absorbance difference (usually ΔA390-A418) was plotted versus the nominal concentration of added sterol, and the data were fit to hyperbolae in GraphPad Prism software (GraphPad, https://www.graphpad.com), using a quadratic equation to correct the ligand concentration for the enzyme-bound concentration (used as Y=B+(A/2)∗(1/E)∗((Kd+E+X)-sqrt((Kd + E+X)^∧2-(4∗E∗X)) in Prism software). The linear regression fits include the internal error estimates (SE).

[2] = system: human P450 51A1; test: Kinetic modeling (KinTek Explorer) of the single-turnover time course; settings: for k^+ of sterol binding to P450 51A1 (kon) used for fitting: all kon set at this value; for k^- of oxidation step of the P450-sterol complex: irreversible, set to zero; for k^+ of oxidation step of the P450-sterol complex / k^- of sterol binding to P450 51A1 (koff) used for fitting: optimized model; for k^+ of oxidation step of the P450-sterol complex: label = sterol oxidized in the step
Text: The initial koff rate constants used in fitting were the koff rates measured in the stopped-flow trap experiments (Fig. 9). All three oxidation reactions are irreversible, and thus k-2, k-4, and k-6 were set to zero.
Data were imported into KinTek Explorer software (v. 11.01, KinTek, https://kintekcorp.com/software) ([63], [64]) as txt files and processed using an Apple computer (operating system 11.6.2).

[3] = molecular target: T1, human P450 51A1; test: Stopped-flow koff measurements of P450 51A1-sterol complexes with ketoconazole trap; format: binding; set-up: made in house; host or cells: Escherichia coli; settings: 23 °C, 10 μM ketoconazole trap, 1 μM P450 51A1
Description: All assays were done at 23 °C in an OLIS-RSM 1000 stopped-flow spectrophotometer, collecting data every 1 ms over a range of 332 to 565 nm with slit widths of 1.24 mm (8 nm bandpass) and gratings with 400 lines/mm and 500 nm blaze. One syringe contained 20 μM ketoconazole dissolved in 100 mM potassium phosphate buffer (pH 7.4). In a preliminary experiment in which this was mixed with an equal volume of 2 μM P450 51A1 (same buffer), the observed rate of binding (ΔA430) was 25 s^−1.
P450 51A1 (2 μM) was premixed with an equivalent concentration of each of the sterols (in HPCD). Each of these solutions was placed in a drive syringe and rapidly mixed with 20 μM ketoconazole (yielding final concentrations of 1 μM P450 51A1 and 10 μM ketoconazole). The rate of the ΔA430-A390 change was used as the koff rate, that is, the rate at which the sterol left the P450 and allowed it to bind to the trap ligand ketoconazole.

[4] = system: rat liver microsomal systems; set-up: method as in PMID 3514778; settings: rat liver microsomes fortified with cyanide, 2 h; cited from earlier work
[5] = Estimation of Kd for HPCD-dihydrolanosterol complex (OD450 light scattering); format: physicochemical; settings: pH 7.4, 2% C2H5OH, 23 °C, 16 h; two assays
[6] = 1.0 μM P450 51A1, quadratic fit
[7] = 1.0 μM P450 51A1, quadratic fit, read-out: Kd

Structure (SMILES) | Kd [1, 6] | Kd [1, 7] [µM] | k^+ of sterol binding to P450 51A1 (kon) used for fitting [2] [M⁻¹ s⁻¹] | k^- of oxidation step of the P450-sterol complex [2] | k^+ of oxidation step of the P450-sterol complex [2] [s⁻¹] | koff [3] [s⁻¹] | accumulation, yield [4] [%] | Kd [5] | Kd [1] [µM] | k^- of sterol binding to P450 51A1 (koff) used for fitting [2] [s⁻¹]
CC(C)CCCC(C)[C@H]1CC[C@@]2(C=O)C3=C(CC[C@]12C)[C@@]1(C)CC[C@H](O)C(C)(C)C1CC3 (stereo partly drawn) [14α-CHO dihydrolanosterol, 24,25-dihydro-14α-formyl lanosterol] | sub-μM | 0.12 ± 0.03 | 2e+06 | 0 | 2.5 | 0.059 ± 0.001 | ~3 | – | – | –
CC(C)CCCC(C)[C@H]1CC[C@@]2(C)C3=C(CC[C@]12C)[C@@]1(C)CC[C@H](O)C(C)(C)C1CC3 (some centres unmarked) [dihydrolanosterol, 24,25-dihydrolanosterol] | sub-μM | – | 2e+06 | 0 | 7.5 | 0.054 ± 0.01 | – | 6400 µM and 6800 µM | 0.23 ± 0.1 | 0.075
CC(C)CCCC(C)[C@H]1CC[C@@]2(CO)C3=C(CC[C@]12C)[C@@]1(C)CC[C@H](O)C(C)(C)C1CC3 (stereo partly drawn) [14α-CH2OH dihydrolanosterol, 24,25-dihydro-14α-CH2OH lanosterol] | sub-μM | 0.02 ± 0.04 | 2e+06 | 0 | 3.5 | 0.022 ± 0.001 | ~3 | – | – | 0.040
